According to patent US20190209581A1, “DOSAGE REGIMEN FOR TREATMENT OF SOLID TUMORS” (Eli Lilly and Company, priority 2016, published 2019):

Assays:
Format in all cases: in vivo
[1] = test system: SW480 human colorectal cell line; assay: Tumor growth inhibition, SW480 xenograft; conditions: SW480 in mice, oral 8 mg/kg, (Mon, Wed, Fri)x5; p <0.0001
Description: (§1) To evaluate in vivo efficacy and effect of 4,4,4-Trifluoro-N-[(1S)-2-[[(7S)-5-(2-hydroxyethyl)-6-oxo-7H-pyrido[2,3-d][3]benzazepin-7-yl]amino]-1-methyl-2-oxo-ethyl]butanamide on inhibition of Notch processing pharmacodynamics (PD), several cell lines- and patient-derived xenograft models are used. A2780 is a human ovarian cell line (Sigma-Aldrich, No. 93112519); SW480 is a human colorectal cell line (ATCC No. CCL-228); HCT 116 is a human colorectal cell line (ATCC No. CCL-247); U-87 MG is a human glioblastoma cell line (ATCC No. HTB-14); A375 is a human malignant melanoma cell line (ATCC No. CRL-1619); K-562 is a human chronic myelogenous leukemia (CML) cell line characterized by the presence of a fusion transcript comprised of the Bcr and Abl1 genes (ATCC No. CCL-243); Jurkat; HEL 92.1.7 is a human erythroleukemia cell line (ATCC No. TIB-180). […] Tumor growth and body weight are monitored over time to evaluate efficacy and signs of toxicity. Bidimensional measurements of tumors are performed twice a week and tumor volumes are calculated based on the following formula: (Tumor Volume)=[(L)×(W2)×(Π/6)] where L is mid-axis length and W is mid-axis width. […] The log volume data are analyzed with a two-way repeated measures analysis of variance by time and treatment using the MIXED™ procedures in SAS™ software (version 8.2). […]

Sprague Dawley rats = assay: Toxicity study in rats, oral gavage, daily or 3 times/week for 2 weeks
Description: A study is carried out to assess the toxicity and toxicokinetics of 4,4,4-Trifluoro-N-[(1S)-2-[[(7S)-5-(2-hydroxyethyl)-6-oxo-7H-pyrido[2,3-d][3]benzazepin-7-yl]amino]-1-methyl-2-oxo-ethyl]butanamide in rats given oral gavage doses of 0, 1.3, or 4.3 mg/kg once daily for 2 weeks or 1, 3, 10, or 30 mg/kg 3 times/week for 2 weeks.
4,4,4-Trifluoro-N-[(1S)-2-[[(7S)-5-(2-hydroxyethyl)-6-oxo-7H-pyrido[2,3-d][3]benzazepin-7-yl]amino]-1-methyl-2-oxo-ethyl]butanamide is combined with a vehicle comprising 1% carboxymethylcellulose sodium, 0.25% polysorbate 80 and 0.05% Dow Corning® Antifoam 1510-US in purified water. Sprague Dawley CD®/IGS rats (crl:CD(SD)), International Genetic Standardization (IGS) 7-9 week old rats, 3/sex/group, Charles River Laboratories, Inc, are used for the study. Animals are fed ad libitum with 12 hours light, 12 hours dark cycle maintained in ventilated stainless-steel racks at an ambient temperature of 22.2+/[…] and relative humidity of 30% to 70%. The test compound is dosed according to Table 1. The test compound is administered by oral gavage in a volume of 10 mL/kg body weight. The duration of the study for all groups is 14 days.
Observations, at a minimum, for Groups 01, 06 and 07 are recorded daily before dosing, approximately one (1) hour postdose, and in the afternoon except afternoon observations are not recorded on weekends. Observations for Groups 02, 03, 04, and 05 are recorded beginning on Day 3. At a minimum, observations are recorded as described on dosing days. On non-dosing days, observations are recorded at approximately the same time as for groups receiving daily doses. Animals are weighed on Days 1, 3, 6, 10, and 14. Terminal body weights are collected at scheduled necropsy. Food consumption weights are recorded on Days 1, 3, 6, 10, and 14.

[2] = test system: human colon carcinoma (EL2144); assay: Tumor growth inhibition, patient-derived tumor model EL2144; conditions: EL2144 in mice, oral 10 mg/kg, Q2Dx8; p <0.0001
Description: as §1

[3] = test system: HEL 92.1.7 human erythroleukemia cell line; assay: Tumor growth inhibition, HEL 92.1.7 xenograft; conditions: HEL 92.1.7 in mice, oral 8 mg/kg, Q2dx14; p NS
Description: as §1

[4] = test system: HCT 116 human colorectal cell line; assay: Tumor growth inhibition, HCT 116 xenograft; conditions: HCT 116 in mice, oral 8 mg/kg, (Mon, Wed, Fri)x4; p <0.05 to <0.01
Description: as §1

C[C@H](NC(=O)CCC(F)(F)F)C(=O)N[C@@H]1C(=O)N(CCO)c2ncccc2-c2ccccc21 [Compound 1, 4,4,4-trifluoro-N-[(1S)-2-[[(7S)-5-(2-hydroxyethyl)-6-oxo-7H-pyrido[2,3-d][3]benzazepin-7-yl]amino]-1-methyl-2-oxo-ethyl]butanamide]
% TGI [1]: 61.00 (<0.0001) % | Tolerability of once daily administration at same total weekly dose (Sprague Dawley rats; rat, in vivo): once daily administration is not tolerated | Compound related toxicities, kidney (Sprague Dawley rats; rat, in vivo, 10 mg/kg): minimal to slight renal tubular degeneration | Gastrointestinal toxicity, daily versus three times/week at same total weekly dose (Sprague Dawley rats; rats, 1.3 mg/kg daily or 3 mg/kg three times/week, 4.3 mg/kg daily or 10 mg/kg three times/week): more severe gastrointestinal toxicity with daily dosing compared to three times/week dosing | Survival (Sprague Dawley rats; rats, 2 of 3 female TK animals, daily doses of 1.3 mg/kg): euthanized on Day 10 due to poor condition | Survival (Sprague Dawley rats; rats, TK animals, daily doses of 4.3 mg/kg): found dead on Days 7, 8, or 10 | Survival (Sprague Dawley rats; rats, all non-TK, male TK and 1 of 3 female TK animals, daily doses of 1.3 mg/kg): survived until the scheduled study termination | Survival (Sprague Dawley rats; rats, all non-toxicokinetic animals, 30 mg/kg 3 times/week): euthanized on Day 10 due to poor condition | Survival (Sprague Dawley rats; rats, animals given daily doses of 4.3 mg/kg (other than TK)): euthanized on Day 10 due to poor condition | Survival (Sprague Dawley rats; rats, non-TK animals given ≤10 mg/kg and TK animals given ≤3 mg/kg 3 times/week): survived until the scheduled study termination | Survival (Sprague Dawley rats; rats, two of three TK animals, 10 mg/kg 3 times/week): euthanized on Day 10 due to poor condition and the remaining TK animal was found dead prior to the 48 hr TK time point on Day 16 | % TGI [2]: 53.37 (<0.0001) % | % TGI [3]: 7.20 (NS) % | % TGI [4]: 37.58 (<0.05 to %
